The text below walks through data of ChEMBL document CHEMBL5518226, “A Vancomycin-Templated DNA-Encoded Library for Combating Drug-Resistant Bacteria” (2024).

Values after ≈ are worked out from the molar mass of the structure shown. Active and inactive are the calls of the source. The calls are words filed in the database; no cut-off is given here. A value given as a limit tells only on which side of the number the result lay.

Test [1] relates to Staphylococcus aureus. Kind of test: Antibacterial activity against vancomycin-intermediate resistant Staphylococcus aureus Mu50 assessed as reduction in fluorescence at 10 uM incubated for 1 hrs by fluorescence microscopic analysis. The format is functional, organism-based.
The subject of test [2] is Enterococcus faecalis. The test can be described thus: Antibacterial activity against Enterococcus faecalis clinical isolate 20-11 assessed as inhibition of bacterial growth incubated for 24 hrs by CLSI protocol based broth microdilution method. The format is functional. (In general: In broth dilution the organism is exposed to a series of concentrations in liquid medium.)

Test [3] concerns Streptococcus pneumoniae. Kind of test: Antibacterial activity against Streptococcus pneumoniae ATCC49619 assessed as inhibition of bacterial growth incubated for 24 hrs by CLSI protocol based broth microdilution method. It counts as functional.
For test [4], the system named is Staphylococcus aureus. Kind of test: Antibacterial activity against vancomycin-intermediate resistant Staphylococcus aureus Mu50 assessed as reduction in bacterial survival at 0.25 to 3 mg/ml. It counts as functional, organism-based. Particulars: dose 0.25-3 mg/ml.
Test [5] relates to Enterococcus faecium. Kind of test: Antibacterial activity against vancomycin-resistant Enterococcus faecium 0649 assessed as reduction in bacterial survival at 3 mg/ml. It counts as functional, organism-based.
The subject of test [6] is Enterococcus faecalis. Kind of test: Antibacterial activity against vancomycin resistant Enterococcus faecalis clinical isolate 20-1 assessed as inhibition of bacterial growth incubated for 24 hrs by CLSI protocol based broth microdilution method. It counts as functional.
In test [7] the test system is Streptococcus pneumoniae. Kind of test: Antibacterial activity against penicillin resistant Streptococcus pneumoniae clinical isolate 20-1 assessed as inhibition of bacterial growth incubated for 24 hrs by CLSI protocol based broth microdilution method. The format is functional.
For test [8], the system named is Staphylococcus aureus. The test can be described thus: Antibacterial activity against vancomycin-intermediate resistant Staphylococcus aureus Mu50 assessed as reduction in bacterial survival at 0.1 mg/ml. The format is functional, organism-based.
Test [9] has as its system Streptococcus pneumoniae. Kind of test: Antibacterial activity against penicillin susceptible Streptococcus pneumoniae clinical isolate 20-1 assessed as inhibition of bacterial growth incubated for 24 hrs by CLSI protocol based broth microdilution method. The format is functional.
In test [10] the test system is Staphylococcus aureus. The test can be described thus: Antibacterial activity against methicillin sensitive Staphylococcus aureus ATCC29213 assessed as inhibition of bacterial growth incubated for 24 hrs by CLSI protocol based broth microdilution method. It counts as functional.
Test [11] concerns Staphylococcus aureus. Kind of test: Antibacterial activity against methicillin sensitive Staphylococcus aureus clinical isolate 20-45 assessed as inhibition of bacterial growth incubated for 24 hrs by CLSI protocol based broth microdilution method. The format is functional.
Test [12] has as its system Enterococcus faecium. Kind of test: Antibacterial activity against Enterococcus faecium clinical isolate 20-15 assessed as inhibition of bacterial growth incubated for 24 hrs by CLSI protocol based broth microdilution method. It counts as functional.
Test [13] relates to Enterococcus faecium. Kind of test: Antibacterial activity against Enterococcus faecium clinical isolate 20-16 assessed as inhibition of bacterial growth incubated for 24 hrs by CLSI protocol based broth microdilution method. The format is functional.
Test [14] relates to Staphylococcus aureus. Kind of test: Antibacterial activity against linezolid resistant Staphylococcus aureus clinical isolate 20-1 assessed as inhibition of bacterial growth incubated for 24 hrs by CLSI protocol based broth microdilution method. The format is functional.
In test [15] the test system is Staphylococcus aureus. Kind of test: Antibacterial activity against methicillin resistant Staphylococcus aureus clinical isolate 20-34 assessed as inhibition of bacterial growth incubated for 24 hrs by CLSI protocol based broth microdilution method. It counts as functional.
Test [16] deals with Staphylococcus epidermidis. The test can be described thus: Antibacterial activity against methicillin resistant Staphylococcus epidermidis clinical isolate 20-1 assessed as inhibition of bacterial growth incubated for 24 hrs by CLSI protocol based broth microdilution method. It counts as functional.
Test [17] concerns Staphylococcus epidermidis. The test can be described thus: Antibacterial activity against methicillin sensitive Staphylococcus epidermidis clinical isolate 20-1 assessed as inhibition of bacterial growth incubated for 24 hrs by CLSI protocol based broth microdilution method. It counts as functional.
The test system of test [18] is Staphylococcus aureus. Kind of test: Antibacterial activity against vancomycin-intermediate resistant Staphylococcus aureus ATCC700699 assessed as inhibition of bacterial growth incubated for 24 hrs by CLSI protocol based broth microdilution method. It counts as functional.
Test [19] concerns Enterococcus faecium. The test can be described thus: Antibacterial activity against vancomycin-resistant Enterococcus faecium 0649 assessed as reduction in bacterial growth by measuring fold change at 0.0625 to 64 ug/ml incubated for 24 hrs by CLSI protocol based broth microdilution method relative to vancomycin. The format is functional. Particulars: dose 0.0625-64 µg/ml.
For test [20], the system named is Staphylococcus aureus. The test can be described thus: Antibacterial activity against methicillin resistant Staphylococcus aureus USA300 assessed as inhibition of bacterial growth incubated for 24 hrs by CLSI protocol based broth microdilution method. It counts as functional.
The subject of test [21] is Staphylococcus aureus. The test can be described thus: Antibacterial activity against methicillin sensitive Staphylococcus aureus Newman assessed as inhibition of bacterial growth incubated for 24 hrs by CLSI protocol based broth microdilution method. The format is functional.
Test [22] has as its system Staphylococcus aureus. The test can be described thus: Antibacterial activity against vancomycin-intermediate resistant Staphylococcus aureus Mu50 assessed as reduction in bacterial growth by measuring fold change at 0.0625 to 64 ug/ml incubated for 24 hrs by CLSI protocol based broth microdilution method relative to vancomycin. Conditions: dose 0.0625-64 µg/ml. The format is functional.

Regarding `CC(C)C[C@H](C(=O)N[C@H]1C(=O)N[C@@H](CC(N)=O)C(=O)N[C@H]2C(=O)N[C@H]3C(=O)N[C@H](C(=O)N[C@H](C(=O)O)c4cc(O)cc(O)c4-c4cc3ccc4O)[C@H](O)c3ccc(c(Cl)c3)Oc3cc2cc(c3O[C@@H]2O[C@H](CO)[C@@H](O)[C@H](O)[C@H]2O[C@H]2C[C@](C)(N)[C@H](O)[C@H](C)O2)Oc2ccc(cc2Cl)[C@H]1O)N(C)C(=S)Nc1ccc2c(c1)C(=O)OC21c2ccc(O)cc2Oc2cc(O)ccc21`, the result in test [1] was inactive.
The term MIC denotes the lowest concentration found to suppress growth. Take `CN[C@H](CC(C)C)C(=O)N[C@H]1C(=O)N[C@@H](CC(N)=O)C(=O)N[C@H]2C(=O)N[C@H]3C(=O)N[C@H](C(=O)N[C@H](C(=O)O)c4cc(O)cc(O)c4-c4cc3ccc4O)[C@H](O)c3ccc(c(Cl)c3)Oc3cc2cc(c3O[C@@H]2O[C@H](CO)[C@@H](O)[C@H](O)[C@H]2O[C@H]2C[C@](C)(N)[C@H](O)[C@H](C)O2)Oc2ccc(cc2Cl)[C@H]1O` [VANCOMYCIN]: the minimum inhibitory concentration (MIC) in test [2] is 1 µg/mL (≈ 0.69 µM); in test [3], 0.5 µg/mL (≈ 0.345 µM); in test [6] it was above 64 µg/mL; in test [7], 0.25 µg/mL (≈ 0.173 µM); in [9] it was 0.25 µg/mL (≈ 0.173 µM). Moreover, the result in test [4] was Active. Also, the result in [5] and in [8] was inactive.
For the molecule `C[C@H]1COc2c(N3CCN(C)CC3)c(F)cc3c(=O)c(C(=O)O)cn1c23` [LEVOFLOXACIN ANHYDROUS], the MIC in test [10] is 0.125 µg/mL (≈ 0.346 µM); in test [11], 0.25 µg/mL (≈ 0.692 µM); in test [2], 1 µg/mL (≈ 2.77 µM); in test [12] it was above 64 µg/mL; in test [13], 64 µg/mL (≈ 177 µM); in test [14] it was 16 µg/mL (≈ 44.3 µM). In addition, the MIC in test [6] was found to be 64 µg/mL (≈ 177 µM); in test [15], 16 µg/mL (≈ 44.3 µM); in test [16] it was 4 µg/mL (≈ 11.1 µM); in test [17], 4 µg/mL (≈ 11.1 µM); in test [18] it was 8 µg/mL (≈ 22.1 µM).
For the molecule `CN[C@H](CC(C)C)C(=O)N[C@H]1C(=O)N[C@@H](CC(N)=O)C(=O)N[C@H]2C(=O)N[C@H]3C(=O)N[C@H](C(=O)N[C@H](C(=O)O)c4cc(O)cc(O)c4-c4cc3ccc4O)[C@H](O)c3ccc(c(Cl)c3)Oc3cc2cc(c3O[C@@H]2O[C@H](CO)[C@@H](O)[C@H](O)[C@H]2O[C@H]2C[C@](C)(NCc3ccc(C#Cc4ccccc4)cc3)[C@H](O)[C@H](C)O2)Oc2ccc(cc2Cl)[C@H]1O`, the entries for the “fold change (FC)” value in test [19] and in test [22] were 16 and 8, respectively. The MIC in test [10], in test [11], in [2], in test [12], in test [3] and in test [13] was at most 0.015 µg/mL in each case. The MIC in [6] was 4 µg/mL (≈ 2.44 µM); in [20], at most 0.06 µg/mL; in test [15], 1 µg/mL (≈ 0.61 µM); in test [21], at most 0.06 µg/mL; in test [9], at most 0.015 µg/mL; in test [17], at most 0.015 µg/mL. Besides, the MIC in test [18] is 0.125 µg/mL (≈ 0.0762 µM).
As for `CN[C@H](CC(C)C)C(=O)N[C@H]1C(=O)N[C@@H](CC(N)=O)C(=O)N[C@H]2C(=O)N[C@H]3C(=O)N[C@H](C(=O)N[C@H](C(=O)NCCCc4cn(Cc5ccc(Cl)c(Cl)c5)nn4)c4cc(O)cc(O)c4-c4cc3ccc4O)[C@H](O)c3ccc(c(Cl)c3)Oc3cc2cc(c3O[C@@H]2O[C@H](CO)[C@@H](O)[C@H](O)[C@H]2O[C@H]2C[C@](C)(N)[C@H](O)[C@H](C)O2)Oc2ccc(cc2Cl)[C@H]1O`, the “fold change (FC)” value in [19] and in test [22] was 8 throughout. Also, the MIC is 0.125 µg/mL (≈ 0.0728 µM) in [10]; 0.125 µg/mL (≈ 0.0728 µM) in test [11]; 0.03 µg/mL (≈ 0.0175 µM) in test [2]; at most 0.015 µg/mL in test [12]; at most 0.015 µg/mL in test [3]; 0.06 µg/mL (≈ 0.035 µM) in test [13]. Further, the minimum inhibitory concentration (MIC) was 0.125 µg/mL (≈ 0.0728 µM) in test [14]; 16 µg/mL (≈ 9.32 µM) in test [6]; at most 0.015 µg/mL in [20]; 0.125 µg/mL (≈ 0.0728 µM) in test [15]; 0.03 µg/mL (≈ 0.0175 µM) in [21]; 0.25 µg/mL (≈ 0.146 µM) in test [16]. The MIC in test [9] is at most 0.015 µg/mL; in test [17] it was 0.25 µg/mL (≈ 0.146 µM); in test [18], 2 µg/mL (≈ 1.17 µM).
Regarding `CN[C@H](CC(C)C)C(=O)N[C@H]1C(=O)N[C@@H](CC(N)=O)C(=O)N[C@H]2C(=O)N[C@H]3C(=O)N[C@H](C(=O)N[C@H](C(=O)NCCCc4cn(-c5ccc(OC(F)F)cc5)nn4)c4cc(O)cc(O)c4-c4cc3ccc4O)[C@H](O)c3ccc(c(Cl)c3)Oc3cc2cc(c3O[C@@H]2O[C@H](CO)[C@@H](O)[C@H](O)[C@H]2O[C@H]2C[C@](C)(N)[C@H](O)[C@H](C)O2)Oc2ccc(cc2Cl)[C@H]1O`, the “fold change (FC)” value in [19] and in [22] was 8 throughout. For the same molecule, the MIC in test [10] is at most 0.015 µg/mL; in test [11], at most 0.015 µg/mL; in test [2] it was at most 0.015 µg/mL; in test [12], at most 0.015 µg/mL; in test [3] it was at most 0.015 µg/mL; in test [13], 0.125 µg/mL (≈ 0.0736 µM). In addition, the MIC in test [6] was 16 µg/mL (≈ 9.41 µM); in test [20] it was 0.06 µg/mL (≈ 0.0353 µM); in test [15], 0.06 µg/mL (≈ 0.0353 µM); in [21], 0.125 µg/mL (≈ 0.0736 µM); in test [16], 0.25 µg/mL (≈ 0.147 µM); in test [9], at most 0.015 µg/mL. Further, the MIC in test [17] worked out at 0.25 µg/mL (≈ 0.147 µM); in test [18] it was 1 µg/mL (≈ 0.588 µM).
